The results in this text go back to US8377981B2, “CBI derivatives subject to reductive activation” (The Scripps Research Institute, priority 2007, dated 2013).

The nature of data set [1]: Chemical stability and reactivity of the N-acyl O-amino phenol derivatives. Format: physicochemical. The conditions noted are these: for stability to acidic conditions: TFA-CH2Cl2, 4 N HCl-EtOAc.
Data set [2] relates to H460 (mitomycin-sensitive, expresses high levels of DT-Diaphorase) non small cell lung cancer (NSCLC) cell line. As to the kind of experiment: Cytotoxic activity, H460 cell line. It counts as cell-based. How it is done:
(§1) The O-amino phenol derivatives bearing the N—O prodrug linkages and the various N-acyl substituents were assayed for cytotoxic activity alongside the parent drugs CBI-TMI (2) (Boger, D. L.; Yun, W. J. Am. Chem. Soc. 1994, 116, 7996) and mitomycin C (Boger, D. L.; et al. Bioorg. Med. Chem. Lett. 1991, 1, 115; Boger, D. L.; et al. Bioorg. Med. Chem. 1995, 3, 1429) as well as the two control standards 9 and 10 incapable of free phenol release. Three cell lines were examined including a standard L1210 cell line (mouse leukemia) as well as the mitomycin-sensitive (H460, expresses high levels of DT-Diaphorase) and resistant (H596, lacks DT-Diaphorase) non small cell lung cancer (NSCLC) cell lines, with results shown in the Table below.

Data set [3] has as its system L1210 cell line (mouse leukemia). Nature of the data set: Cytotoxic activity, L1210 cell line. It counts as cell-based. How it is done: as §1
The subject of data set [4] is H596 (mitomycin-resistant, lacks DT-Diaphorase) non small cell lung cancer (NSCLC) cell line. As to the kind of experiment: Cytotoxic activity, H596 cell line. It counts as cell-based. Here is the method:
as §1

Data set [5] deals with L1210 murine leukemia implanted i.p. into DBA/2J mice. Nature of the data set: In vivo antitumor activity, L1210 i.p. in DBA/2J mice (30% DMSO in 0.1% glucose). The arrangement: species or system mouse. The conditions noted are these: for Surviving Mice: 365 days; for weight loss of treated animals: days 30-100, highest dosing. The text has this: The prodrug 8 was examined for in vivo efficacy alongside the parent drug 3 in a standard antitumor model enlisting L1210 murine leukemia implanted i.p. into DBA/2J mice. This model has been reported to respond well to the parent drugs of related compounds (Li, L. H.; et al. Invest. New Drugs 1991, 9, 137) and is a system that collaborators through the years have used to assess an extensive series of (+)-CBI-indole2 analogues. Although not published, these latter studies provided the foundation on which examination of 8 is based.
With use the dose range (10-100 μg/kg) and the dosing schedule (administered three times i.p. on days 1, 5, and 9) found suitable for related parent drugs including (+)-CBI-indole2 (3) (Boger, D. L.; et al. Bioorg. Med. Chem. Lett. 1991, 1, 115; Boger, D. L.; et al. Bioorg. Med. Chem. 1995, 3, 1429), the prodrug 8 was examined as is shown in the Table below.
DBA/2J mice were purchased from Jackson Laboratory (Bar Harbor, Me.) and housed in the animal facility at The Scripps Research Institute. L1210 tumor cells, originally isolated from DBA/2 mice, were cultured in DMEM medium containing 5% fetal calf serum. For tumor implantation, DBA/2J mice were i.p. injected with 1×10^5 L1210 cells at day 0.
Compounds 3 and 8 were formulated with 30% DMSO plus 0.1% glucose solution. Treatment doses of drugs (0, 10, 30, 100 µg/kg wt. of animal) were i.p. injected consecutively on day 1, 5 and 9. The study was performed with six mice per group. Tumor growth in the peritoneal cavity was monitored daily and the death of animals was recorded. If necessary, weights of animals were measured once a week. To date this monitoring of the animals has lasted 365 days.

The test system is the same in data set [6]. Nature of the data set: In vivo antitumor activity, second site (neat DMSO, terminated after 120 days). The arrangement: species or system mouse. To be noted: for Surviving Mice: still living after 120 days. Here is the method:
Confirming these observations, an analogous antitumor assessment was carried out independently at a second site utilizing a slightly different and harsher protocol for drug administration (neat DMSO vs 30% DMSO in 0.1% glucose).
In the above Table, the second column is the dose in mg/kg of body weight of the animal that is administered i.p. (into the intraperitoneal cavity) on days 1, 5, and 9. The surviving mice are the number of mice that are still living after 120 days and the experiment was then terminated.
An analogous study with 10 mice per group was performed at the University of Kansas with the distinction that the compounds were administered in neat DMSO (0, 10, 30, 60, 100 µg/kg wt. of animal) and the study was terminated after 120 days.

Setting [7] is: Homo sapiens, NCI-H460, read-out: IC50 (nM) H460.
[8] abbreviates: Mus musculus, L1210, read-out: IC50 (nM) L1210, natural enantiomer series, CBI-TMI derivatives.
[9] abbreviates: Homo sapiens, NCI-H596, read-out: IC50 (nM) H596.
Setting [10] is: Homo sapiens, NCI-H596, natural enantiomer series, CBI-indole2 derivatives, read-out: IC50 (nM) H596.
[11] abbreviates: 10 μg/kg i.p. days 1, 5, 9, neat DMSO.
The mark [12] stands for this setting: 30 μg/kg i.p. days 1, 5, 9, neat DMSO.
Where [13] appears, read: 60 μg/kg i.p. days 1, 5, 9, neat DMSO.
Where [14] appears, read: 100 μg/kg i.p. days 1, 5, 9, neat DMSO.

Like-named read-outs stand apart in the source and are kept apart here. Bounds are passed on as bounds.

Turning to `COc1cc2cc(C(=O)N3C[C@@H](CCl)c4c3cc(ON3C(=O)c5ccccc5C3=O)c3ccccc43)[nH]c2c(OC)c1OC` [Compound 7], the “stability to acidic conditions” value in data set [1] is “surprisingly robust to acidic conditions”. Further, the “stability on long term storage” value in data set [1] was “noticeably deteriorating over time”. For the same compound, the values for the IC50 in data set [2] (setting [7]), in data set [3] (setting [8]) and in data set [4] (setting [9]) were 0.5 nM, 0.06 nM and 5 nM, respectively.

For `COc1cc2cc(C(=O)N3C[C@@H](CCl)c4c3cc(ON(C(C)=O)C(=O)OC(C)(C)C)c3ccccc43)[nH]c2c(OC)c1OC` [Compound 6], in data set [1], the “stability to acidic conditions” value was “surprisingly robust to acidic conditions”. Also, the IC50 in data set [2] (setting [7]) stood at 0.6 nM; in data set [3] (setting [8]), 0.2 nM; in data set [4] (setting [9]), 5 nM.

For the compound `O=C(Nc1ccc2[nH]c(C(=O)N3C[C@@H](CCl)c4c3cc(O)c3ccccc43)cc2c1)c1cc2ccccc2[nH]1` [Compound 3, seco-CBI-indole2, reference compound], the concentration for half-maximal inhibition (IC50) in data set [2] (Homo sapiens, NCI-H460, natural enantiomer series, CBI-indole2 derivatives, read-out: IC50 (nM) H460) worked out at 0.2 nM; in data set [2] (unnatural enantiomer series, CBI-indole2 derivatives, read-out: IC50 (nM) H460), 6 nM; in data set [3] (Mus musculus, L1210, natural enantiomer series, CBI-indole2 derivatives, read-out: IC50 (nM) L1210) it was 0.03 nM; in data set [3] (unnatural enantiomer series, CBI-indole2 derivatives, read-out: IC50 (nM) L1210), 0.7 nM; in data set [4] (setting [10]), 2 nM; in data set [4] (unnatural enantiomer series, CBI-indole2 derivatives, read-out: IC50 (nM) H596), 40 nM. The “Mean Survival Period (MSP)” value is on record as 34 days in data set [5] (10 μg/kg i.p. days 1, 5, 9); over 115 days in data set [5] (30 μg/kg i.p. days 1, 5, 9); 125 days in data set [5] (100 μg/kg i.p. days 1, 5, 9); over 60 days in data set [6] (setting [11]); over 65 days in data set [6] (setting [12]); over 71 days in data set [6] (setting [13]). In addition, in data set [6] (setting [14]), the “Mean Survival Period (MSP)” value was found to be 11 days. Besides, the “Treated/Control (MSP × 100)” value is on record as 170 in data set [5] (10 μg/kg i.p. days 1, 5, 9); over 580 in data set [5] (30 μg/kg i.p. days 1, 5, 9); 625 in data set [5] (100 μg/kg i.p. days 1, 5, 9); over 271 in data set [6] (setting [11]); over 295 in data set [6] (setting [12]); over 324 in data set [6] (setting [13]). The “Treated/Control (MSP × 100)” value in data set [6] (setting [14]) was determined as 52. The “Surviving Mice” value in data set [5] (10 μg/kg i.p. days 1, 5, 9) is 0/6; in data set [5] (30 μg/kg i.p. days 1, 5, 9), 1/6; in data set [5] (100 μg/kg i.p. days 1, 5, 9), 0/6; in data set [6] (10 μg/kg), 3/10; in data set [6] (30 μg/kg) it was 3/10; in data set [6] (60 μg/kg), 3/10. Further, the “Surviving Mice” value in data set [6] (100 μg/kg) is reported as 0/10. Besides, the “weight loss of treated animals” value in data set [5] is “weight loss that was evident”. Further, the “fate of surviving mice at day 90” value in data set [5] (prolonged management beyond day 90) is recorded as “eventually expired due to drug administration related complications”.

On to `COc1cc2cc(C(=O)N3C[C@@H](CCl)c4c3cc(ONC(C)=O)c3ccccc43)[nH]c2c(OC)c1OC` [Compound 5], for which, in data set [1], the “stability on long term storage” value is listed as “withstanding even long term storage effectively”. For the same compound, the IC50 was 0.7 nM in data set [2] (setting [7]), 0.3 nM in data set [3] (setting [8]) and 7 nM in data set [4] (setting [9]).

As to `CC(C)(C)OC(=O)NOc1cc2c(c3ccccc13)[C@H](CCl)CN2C(=O)c1cc2cc(NC(=O)c3cc4ccccc4[nH]3)ccc2[nH]1` [Compound 8], the IC50 is 0.3 nM in data set [2] (setting [7]); 0.05 nM in data set [3] (Mus musculus, L1210, read-out: IC50 (nM) L1210, natural enantiomer series, CBI-indole2 derivatives); 0.03 to 0.2 nM in data set [3] (Mus musculus, L1210, text range over L1210 and H460, natural enantiomer); 4 nM in data set [4] (setting [10]). Moreover, the “Mean Survival Period (MSP)” value in data set [5] (10 μg/kg i.p. days 1, 5, 9) is listed as 25 days; in data set [5] (30 μg/kg i.p. days 1, 5, 9) it was over 145 days; in data set [5] (100 μg/kg i.p. days 1, 5, 9) it was over 310 days; in data set [6] (setting [11]), over 46 days; in data set [6] (setting [12]), over 51 days; in data set [6] (setting [13]), over 93 days. In addition, the “Mean Survival Period (MSP)” value in data set [6] (setting [14]) is listed as over 63 days. Moreover, the “Treated/Control (MSP × 100)” value was 120 in data set [5] (10 μg/kg i.p. days 1, 5, 9); over 730 in data set [5] (30 μg/kg i.p. days 1, 5, 9); over 1550 in data set [5] (100 μg/kg i.p. days 1, 5, 9); over 210 in data set [6] (setting [11]); over 232 in data set [6] (setting [12]); over 425 in data set [6] (setting [13]). Also, in data set [6] (setting [14]), the “Treated/Control (MSP × 100)” value was over 288. For the same compound, the “Surviving Mice” value in data set [5] (10 μg/kg i.p. days 1, 5, 9) is recorded as 0/6; in data set [5] (30 μg/kg i.p. days 1, 5, 9), 2/6; in data set [5] (100 μg/kg i.p. days 1, 5, 9), 5/6; in data set [6] (10 μg/kg), 2/10; in data set [6] (30 μg/kg), 2/10; in data set [6] (60 μg/kg), 7/10. In data set [6] (100 μg/kg), the “Surviving Mice” value is 3/10. Besides, the “weight loss of treated animals” value in data set [5] is “little or no weight loss”. For the same compound, in data set [3] (in each cell line examined), the “potency compared with CBI-indole2 (3)” value is reported as “essentially equipotent”. The “times more active than mitomycin C” value in data set [3] (natural enantiomer) is given as 100-1000 times. Moreover, the “fold less active than the natural enantiomer” value in data set [3] (unnatural enantiomer of prodrug 8) is 10-100 fold. Further, the “efficacy compared with free drug 3” value in data set [6] (deaths due to the disease, tumor counts, tumor volume) is “comparable or superior in terms of reducing deaths due to the disease, tumor counts, and tumor volume”. The “toxicity of administration compared with free drug 3” value in data set [6] (neat DMSO, 120 days) is “significantly less toxic than free drug 3”.
